Measurements taken from patent US20250367170A1, “TOPICAL ANGIOTENSIN II RECEPTOR BLOCKERS (ARBS) FOR TREATING EYE CONDITIONS” (The Cleveland Clinic Foundation, priority 2022, published 2025).

How the values were obtained:
Assay type in all cases: in vivo, New Zealand White rabbits
[1] = test system: rabbit corneas after 1N NaOH alkali burn injury; assay: Slit lamp stromal opacity area and intensity (ImageJ) one month after alkali burn; details: topical 0.2 mg/ml losartan and/or 1% prednisolone acetate six times per day
Description: All animal treatments and care were approved by the Institutional Animal Care and Use Committee (IACUC) at the Cleveland Clinic Foundation (Cleveland, OH, USA) and the Animal Care and Use Review Office of the Department of the Army (Fort Detrick, MD). All rabbits were treated in accordance with the tenets of the ARVO Statement for the Use of Animals in Ophthalmic and Vision Research. Sixteen 10- to 15-week-old female New Zealand White rabbits weighing 2.5 to 3.0 kg each were included in this example.
(§1) Alkali injuries were produced in one eye of rabbits with previously published methods^10 using 1N sodium hydroxide (Sigma, St. Louis, MO) in balanced salt solution (BSS, 0.64% sodium chloride, 0.075% potassium chloride, 0.048% calcium chloride dihydrate, 0.03% magnesium chloride hexahydrate, 0.39% sodium acetate trihydrate, 0.17% sodium citrate dihydrate, pH 7.5, Alcon, Ft. Worth, TX) and a 5 mm diameter circular Whatman No. 1 filter paper (Cat #1001-6508, Fisher Scientific) wetted with 100 μl of 1N NaOH solution. Following the alkali burn injury, the cornea was irrigated profusely with BSS. Each injured cornea also received one drop of ciprofloxacin (Alcon, Ft. Worth, TX, USA) ten minutes after surgery and four times a day for one week and at least 15 minutes apart from the study medications.
(§2) Worth TX), at least 5 minutes apart, or 4) 50 μl of BSS.
At one month after sodium hydroxide exposure and treatments, with the rabbits under ketamine-xylazine general anesthesia, the eyes were dilated with two drops of 1% tropicamide (Akom Co., Lake Forest, IL) for thirty minutes. The study eye in each rabbit had slit lamp photographs with standardized illumination level and angle of illumination at 20× magnification with a Topcon (Oakland, NJ, USA) SL-D7 slit lamp photography system. For each study eye, the total area of opacity was determined by outlining the opacity with the freehand selection tool using ImageJ 1.53a analysis software calibrated to mm^2. The “raw internal density” in pixels for the opacified area in each cornea was also determined using ImageJ.

collagen type IV = assay: IHC collagen type IV intensity in anterior and posterior stroma after alkali burn; details: one month
Description: Multiplex immunohistochemistry (IHC) was performed using previously described methods^8 and primary antibodies (Table 7) confirmed by western blotting and IHC to recognize rabbit antigens or isotypic control antibodies (Thermo Fisher Scientific, Waltham, MA), and secondary fluorescent tagged antibodies (Table 7). The collagen type IV antibody (Cat. #AB769, Millipore, Temecula CA) was raised against purified human and bovine collagen type IV that had been affinity purified with human and bovine collagen type IV crosslinked to agarose and cross-absorbed by the manufacturer with human and bovine collagens type I, II, III, V and VI to eliminate cross-reactivity. This collagen type IV antibody was shown previously to bind rabbit collagen IV in IHC,^8,9 and recognizes the alpha-1/alpha-2 chains but not the alpha-3 to alpha-6 chains. The keratocan antibody is raised against peptide […]-OH (SEQ ID NO:1). This marker was used to identify keratocytes in situ. […] All corneas in each group had IHC for collagen type IV. Images from each cornea were converted to uniform 300 DPI, 875×568 pixel, files. […] The staining intensity within each box was determined with the analyze histogram function and the mean of three boxes was the intensity value in the anterior or posterior stroma for that cornea.

[2] = test system: central corneal neovascularization (CNV); assay: Corneal angiography for central corneal neovascularization after alkali burn; details: topical six times per day, one month, all four vehicle corneas positive
Description: as §1, §2
All corneas had fluorescent angiography at the peak of dye passage in the cornea immediately after injection of 1.5 ml of 10% sodium fluorescein (McKesson, Irvine, TX) in the central ear vein with the slit lamp system and digital camera system using a “barrier filter” that only transmitted 520-530 nm, the peak of fluorescein emission, with broad illumination of the cornea, as previously described.^11

CC(=O)OCC(=O)[C@@]1(O)CC[C@H]2[C@@H]3CCC4=CC(=O)C=C[C@]4(C)[C@H]3[C@@H](O)C[C@@]21C [prednisolone acetate]
total corneal opacity area measured with ImageJ, vs BSS vehicle [1]: decreased
total opacity in pixels in the opacified area of cornea, vs vehicle BSS group [1]: trended towards decreased total opacity
mean intensity units of collagen type IV in the anterior stroma vs vehicle (collagen type IV): trend towards a decrease
corneas (of four) that developed central corneal neovascularization [2]: one
